Patent publication US5061689A, “Zinc bacitracin containing wound dressing” (Bioderm, Inc., priority 1986, dated 1991)

Test system: partial thickness wounds
Assay: Topically applied bacitracin zinc 3% to 9%, healing of partial thickness wounds (Example III)
Type: in vivo, white Yorkshire pigs
Excerpt: To test the effect of bacitracin zinc on epidermal resurfacing, approximately 60 rectangular wounds measuring 7 mm wide, 10 mm long, and 0.5 mm deep were made in each of eighteen white Yorkshire pigs in the paravertebral and thoracic areas with a Castroviejo keratome. The electrokeratome was fitted with a razor blade modified so that the cutting edge was reduced to 7 mm. The wounds were separated from one another by at least 15 mm of normal skin. The bacitracin zinc was applied in impregnated foam shortly (within 5 minutes) after wounding on day 0 and once daily thereafter for 7 days. In order to rule out the possibility that wounds made in different anatomical regions heal at different rates the regions used for each treatment group varied for each animal. Two days after wounding and each day thereafter some of the wounds with surrounding normal skin were excised from each treatment group. The excisions were made with a Castroviejo keratome fitted with a 22 mm blade, set to cut at a depth of 0.7 mm. After incubating the specimens in 2N sodium bromide at 37° C. for three hours, the epidermis was separated from the dermis and the epidermal sheet (22 sq mm) was assessed for re-epithelialization as previously described. Briefly, this method is a macroscopic examination of the separated epidermis for defects. Defects are visualized as holes in the separated epidermal sheet or as a lack of epidermal continuum in the area that contain the wound. The wound is considered re-epithelialized if there are no defects in the epidermis and not re-epithelialized if there are one or more defects. To more accurately assess the effective range of bacitracin concentrations,bacitracin zinc containing ointments were prepared with concentrations ranging from 3% to 9%. The methodology employed was substantially the same as in Example I.

In the case of bacitracin zinc, the “% of wounds healed” value (3.0% bacitracin zinc, day 2 after wounding) was 0%, the “% of wounds healed” value (3.0% bacitracin zinc, day 3 after wounding) was 0% and the “% of wounds healed” value (3.0% bacitracin zinc, day 4 after wounding) was 33%. For the same substance, the “% of wounds healed” value (3.0% bacitracin zinc, day 5 after wounding) was 55%, the “% of wounds healed” value (3.0% bacitracin zinc, day 6 after wounding) was 90% and the “% of wounds healed” value (3.0% bacitracin zinc, day 7 after wounding) was 100%. For the same substance, the “% of wounds healed” value (4.0% bacitracin zinc, day 2 after wounding) was 0%, the “% of wounds healed” value (4.0% bacitracin zinc, day 3 after wounding) was 5% and the “% of wounds healed” value (4.0% bacitracin zinc, day 4 after wounding) was 45%. The “% of wounds healed” value (4.0% bacitracin zinc, day 5 after wounding) was 60%, the “% of wounds healed” value (4.0% bacitracin zinc, day 6 after wounding) was 96% and the “% of wounds healed” value (4.0% bacitracin zinc, day 7 after wounding) was 100%. For the same substance, the “% of wounds healed” value (5.0% bacitracin zinc, day 2 after wounding) was 0%, the “% of wounds healed” value (5.0% bacitracin zinc, day 3 after wounding) was 9% and the “% of wounds healed” value (5.0% bacitracin zinc, day 4 after wounding) was 48%. The “% of wounds healed” value (5.0% bacitracin zinc, day 5 after wounding) was 71%, the “% of wounds healed” value (5.0% bacitracin zinc, day 6 after wounding) was 95% and the “% of wounds healed” value (5.0% bacitracin zinc, day 7 after wounding) was 100%. The “% of wounds healed” value (5.5% bacitracin zinc, day 2 after wounding) was 0%, the “% of wounds healed” value (5.5% bacitracin zinc, day 3 after wounding) was 15% and the “% of wounds healed” value (5.5% bacitracin zinc, day 4 after wounding) was 55%. For the same substance, the “% of wounds healed” value (5.5% bacitracin zinc, day 5 after wounding) was 75%, the “% of wounds healed” value (5.5% bacitracin zinc, day 6 after wounding) was 98% and the “% of wounds healed” value (5.5% bacitracin zinc, day 7 after wounding) was 100%. The “% of wounds healed” value (6.0% bacitracin zinc, day 2 after wounding) was 0%, the “% of wounds healed” value (6.0% bacitracin zinc, day 3 after wounding) was 20% and the “% of wounds healed” value (6.0% bacitracin zinc, day 4 after wounding) was 59%. The “% of wounds healed” value (6.0% bacitracin zinc, day 5 after wounding) was 78%, the “% of wounds healed” value (6.0% bacitracin zinc, day 6 after wounding) was 98% and the “% of wounds healed” value (6.0% bacitracin zinc, day 7 after wounding) was 100%. For the same substance, the “% of wounds healed” value (6.5% bacitracin zinc, day 2 after wounding) was 0%, the “% of wounds healed” value (6.5% bacitracin zinc, day 3 after wounding) was 33% and the “% of wounds healed” value (6.5% bacitracin zinc, day 4 after wounding) was 65%. The “% of wounds healed” value (6.5% bacitracin zinc, day 5 after wounding) was 88%, the “% of wounds healed” value (6.5% bacitracin zinc, day 6 after wounding) was 100% and the “% of wounds healed” value (6.5% bacitracin zinc, day 7 after wounding) was 100%. For the same substance, the “% of wounds healed” value (7.0% bacitracin zinc, day 2 after wounding) was 0%, the “% of wounds healed” value (7.0% bacitracin zinc, day 3 after wounding) was 40% and the “% of wounds healed” value (7.0% bacitracin zinc, day 4 after wounding) was 70%. For the same substance, the “% of wounds healed” value (7.0% bacitracin zinc, day 5 after wounding) was 96%, the “% of wounds healed” value (7.0% bacitracin zinc, day 6 after wounding) was 100% and the “% of wounds healed” value (7.0% bacitracin zinc, day 7 after wounding) was 100%. The “% of wounds healed” value (7.5% bacitracin zinc, day 2 after wounding) was 0%, the “% of wounds healed” value (7.5% bacitracin zinc, day 3 after wounding) was 38% and the “% of wounds healed” value (7.5% bacitracin zinc, day 4 after wounding) was 68%. For the same substance, the “% of wounds healed” value (7.5% bacitracin zinc, day 5 after wounding) was 92%, the “% of wounds healed” value (7.5% bacitracin zinc, day 6 after wounding) was 98% and the “% of wounds healed” value (7.5% bacitracin zinc, day 7 after wounding) was 100%. For the same substance, the “% of wounds healed” value (8.0% bacitracin zinc, day 2 after wounding) was 0%, the “% of wounds healed” value (8.0% bacitracin zinc, day 3 after wounding) was 12% and the “% of wounds healed” value (8.0% bacitracin zinc, day 4 after wounding) was 59%. The “% of wounds healed” value (8.0% bacitracin zinc, day 5 after wounding) was 75%, the “% of wounds healed” value (8.0% bacitracin zinc, day 6 after wounding) was 90% and the “% of wounds healed” value (8.0% bacitracin zinc, day 7 after wounding) was 100%. For the same substance, the “% of wounds healed” value (9.0% bacitracin zinc, day 2 after wounding) was 0%, the “% of wounds healed” value (9.0% bacitracin zinc, day 3 after wounding) was 4% and the “% of wounds healed” value (9.0% bacitracin zinc, day 4 after wounding) was 33%. The “% of wounds healed” value (9.0% bacitracin zinc, day 5 after wounding) was 66%, the “% of wounds healed” value (9.0% bacitracin zinc, day 6 after wounding) was 90% and the “% of wounds healed” value (9.0% bacitracin zinc, day 7 after wounding) was 100%. The promoting epidermal resurfacing (applied in an ointment base at concentrations of about 5% to 8%) was “effective agent for promoting epidermal resurfacing”, the enhancement of healing (concentration of 4%) was “some enhancement of healing is observed” and the enhancement of healing (higher concentrations, particularly in the range of 6.5%-7.5%) was “Preferred healing is observed”.
